This is an account of results in US9512142B2, “Tricyclic triazolic compounds” (LABORATORIOS DEL DR. ESTEVE S.A., priority 2013, dated 2016).

Data set [1] is described as follows: Kinetic solubility. The class given is physicochemical. As to conditions: kinetic from dmso stock, buffered aqueous solution at pH=7.4, 10 μL of 10 mM DMSO solution in 1 mL, stirred 4 hours, supernatant by liquid chromatography, read-out: Kin. Solub. As for the experimental part:
To a buffered aqueous solution at pH=7.4 (1 mL), a 10 mM DMSO solution of the test compound (10 μL) was added and the mixture stirred for 4 hours. After centrifugation, the compound concentration in the supernatant was determined by liquid chromatography by fitting in a calibration curve of the compound.

For data set [2], the target named is T1, human sigma 1 receptor (Homo sapiens, UniProt Q99720).
T1 construct: expressed in transfected cells; host or cells: HEK-293
The data set is described as follows: Human sigma 1 receptor radioligand assay ([3H](+)-pentazocine, transfected HEK-293 membranes). The class given is binding. The conditions noted are these: 5 nM [3H](+)-pentazocine, transfected HEK-293 membranes, 37° C., 120 minutes; read-out: Ki. The method, then:
Human Sigma 1 Receptor Radioligand Assay
The assay was carried out with 7 μg of membrane suspension, 5 nM of [^3H](+)-pentazocine in either absence or presence of either buffer or 10 μM Haloperidol for total and non-specific binding, respectively. Binding buffer contained Tris-HCl 50 mM at pH 8. Plates were incubated at 37° C. for 120 minutes. After the incubation period, the reaction mix was then transferred to MultiScreen HTS, FC plates (Millipore), filtered and plates were washed 3 times with ice-cold 10 mM Tris-HCL (pH7.4). Filters were dried and counted at approximately 40% efficiency in a MicroBeta scintillation counter (Perkin-Elmer) using EcoScint liquid scintillation cocktail.

[3] abbreviates: buffered aqueous solution, pH 7.4, aqueous buffer.

Read-outs that look alike come from different tables or passages of the source.

T1 sequence (Q99720 whole entry): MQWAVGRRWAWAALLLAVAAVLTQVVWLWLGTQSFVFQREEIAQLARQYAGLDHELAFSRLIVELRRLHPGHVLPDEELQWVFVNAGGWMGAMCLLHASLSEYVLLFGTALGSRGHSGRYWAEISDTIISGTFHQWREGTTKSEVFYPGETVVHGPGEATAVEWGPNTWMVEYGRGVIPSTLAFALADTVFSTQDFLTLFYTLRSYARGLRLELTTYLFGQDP

As usually defined, the Ki is the dissociation constant of the complex between target and ligand, obtained from inhibition or displacement. As for `Cl.c1ccc(CN2C[C@@H]3[C@@H](C2)OCc2c(-c4ccccn4)nnn23)cc1` [Example 32, (5aR,8aR)-7-benzyl-3-(pyridin-2-yl)-4,5a,6,7,8,8a-hexahydropyrrolo[3,4-b][1,2,3]triazolo[1,5-d][1,4]oxazine hydrochloride], the solubility at 4 h in data set [1] (setting [3]) is more than 10 µM. The Ki in data set [2] was found to be 37 nM.

In the case of `Cl.c1ccc(CN2C[C@@H]3OCc4c(-c5ccccn5)nnn4[C@H]3C2)cc1` [Example 33, (5aS,8aS)-7-benzyl-3-(pyridin-2-yl)-4,5a,6,7,8,8a-hexahydropyrrolo[3,4-b][1,2,3]triazolo[1,5-d][1,4]oxazine hydrochloride], the solubility at 4 h in data set [1] (setting [3]) was more than 10 µM. The Ki in data set [2] stood at 225 nM.

As to `Cl.Fc1ccc(-c2nnn3c2CO[C@@H]2CN(Cc4ccc(F)nc4)C[C@H]23)c(Cl)c1` [Example 39, (5aR,8aR)-3-(2-chloro-4-fluorophenyl)-7-((6-fluoropyridin-3-yl)methyl)-4,5a,6,7,8,8a-hexahydropyrrolo[3,4-b][1,2,3]triazolo[1,5-d][1,4]oxazine hydrochloride], the solubility at 4 h in data set [1] (setting [3]) is more than 10 µM. Also, the Ki in data set [2] came to 166 nM.

Take `Cl.Fc1ccc(-c2nnn3c2CO[C@@H]2CN(CC4CCOCC4)C[C@H]23)c(Cl)c1` [Example 42, (5aR,8aR)-3-(2-chloro-4-fluorophenyl)-7-((tetrahydro-2H-pyran-4-yl)methyl)-4,5a,6,7,8,8a-hexahydropyrrolo[3,4-b][1,2,3]triazolo[1,5-d][1,4]oxazine hydrochloride]: in data set [1] (setting [3]), the solubility at 4 h is more than 10 µM. The Ki in data set [2] was 33.3 nM.

As to `Cl.Fc1ccc(-c2nnn3c2CO[C@H]2CN(CC4CCOCC4)C[C@@H]23)c(Cl)c1` [Example 43, (5aS,8aS)-3-(2-chloro-4-fluorophenyl)-7-((tetrahydro-2H-pyran-4-yl)methyl)-4,5a,6,7,8,8a-hexahydropyrrolo[3,4-b][1,2,3]triazolo[1,5-d][1,4]oxazine hydrochloride], in data set [1] (setting [3]), the solubility at 4 h is more than 10 µM. The Ki in data set [2] is 20.5 nM.

Consider `Cl.Clc1ccc(-c2nnn3c2CO[C@H]2CN(C4CCOCC4)C[C@@H]23)c(Cl)c1` [Example 46, (5aS,8aS)-3-(2,4-dichlorophenyl)-7-(tetrahydro-2H-pyran-4-yl)-4,5a,6,7,8,8a-hexahydropyrrolo[3,4-b][1,2,3]triazolo[1,5-d][1,4]oxazine hydrochloride], for which the solubility at 4 h in data set [1] (setting [3]) is more than 10 µM. Moreover, in data set [2], the Ki came out at 15.1 nM.

Turning to `Cl.Fc1ccc(-c2nnn3c2CO[C@@H]2CN(CCC4CCOCC4)C[C@H]23)c(Cl)c1` [Example 47, (5aR,8aR)-3-(2-chloro-4-fluorophenyl)-7-(2-(tetrahydro-2H-pyran-4-yl)ethyl)-4,5a,6,7,8,8a-hexahydropyrrolo[3,4-b][1,2,3]triazolo[1,5-d][1,4]oxazine hydrochloride], the solubility at 4 h in data set [1] (setting [3]) was more than 10 µM. For the same compound, the inhibition constant Ki in data set [2] is 26.8 nM.

For the compound `Cl.Fc1ccc(-c2nnn3c2CO[C@H]2CN(CCC4CCOCC4)C[C@@H]23)c(Cl)c1` [Example 48, (5aS,8aS)-3-(2-chloro-4-fluorophenyl)-7-(2-(tetrahydro-2H-pyran-4-yl)ethyl)-4,5a,6,7,8,8a-hexahydropyrrolo[3,4-b][1,2,3]triazolo[1,5-d][1,4]oxazine hydrochloride], the solubility at 4 h in data set [1] (setting [3]) was more than 10 µM. The Ki in data set [2] came to 11.7 nM.

Regarding `COc1ccc(CN2C[C@@H]3[C@@H](C2)OCc2c(-c4ccc(F)cc4Cl)nnn23)cn1.Cl` [Example 49, (5aR,8aR)-3-(2-chloro-4-fluorophenyl)-7-((6-methoxypyridin-3-yl)methyl)-4,5a,6,7,8,8a-hexahydropyrrolo[3,4-b][1,2,3]triazolo[1,5-d][1,4]oxazine hydrochloride], the solubility at 4 h in data set [1] (setting [3]) was more than 10 µM. The Ki in data set [2] was 112 nM.

As to `COc1ccc(CN2C[C@@H]3OCc4c(-c5ccc(F)cc5Cl)nnn4[C@H]3C2)cn1.Cl` [Example 50, (5aS,8aS)-3-(2-chloro-4-fluorophenyl)-7-((6-methoxypyridin-3-yl)methyl)-4,5a,6,7,8,8a-hexahydropyrrolo[3,4-b][1,2,3]triazolo[1,5-d][1,4]oxazine hydrochloride], in data set [1] (setting [3]), the solubility at 4 h is more than 10 µM. For the same compound, the Ki in data set [2] was 99.9 nM.

`COc1ccc(CN2C[C@@H]3[C@@H](C2)OCc2c(-c4ccc(F)cc4F)nnn23)cn1.Cl` [Example 51, (5aR,8aR)-3-(2,4-difluorophenyl)-7-((6-methoxypyridin-3-yl)methyl)-4,5a,6,7,8,8a-hexahydropyrrolo[3,4-b][1,2,3]triazolo[1,5-d][1,4]oxazine hydrochloride]: the solubility at 4 h in data set [1] (setting [3]) was more than 10 µM. The Ki in data set [2] amounted to 234 nM.

Take `COc1ccc(CN2C[C@@H]3OCc4c(-c5ccc(F)cc5F)nnn4[C@H]3C2)cn1.Cl` [Example 52, (5aS,8aS)-3-(2,4-difluorophenyl)-7-((6-methoxypyridin-3-yl)methyl)-4,5a,6,7,8,8a-hexahydropyrrolo[3,4-b][1,2,3]triazolo[1,5-d][1,4]oxazine hydrochloride]: the solubility at 4 h in data set [1] (setting [3]) was more than 10 µM. Also, the Ki in data set [2] was determined as 272 nM.

Take `Cl.Clc1ccc(-c2nnn3c2CO[C@H]2CN(CCC4CCOCC4)C[C@@H]23)c(Cl)c1` [Example 53, (5aS,8aS)-3-(2,4-dichlorophenyl)-7-(2-(tetrahydro-2H-pyran-4-yl)ethyl)-4,5a,6,7,8,8a-hexahydropyrrolo[3,4-b][1,2,3]triazolo[1,5-d][1,4]oxazine hydrochloride]: the solubility at 4 h in data set [1] (setting [3]) was more than 10 µM. The Ki in data set [2] came out at 16.8 nM.

As to `Cl.Clc1ccc(-c2nnn3c2CO[C@@H]2CN(CCC4CCOCC4)C[C@H]23)c(Cl)c1` [Example 54, (5aR,8aR)-3-(2,4-dichlorophenyl)-7-(2-(tetrahydro-2H-pyran-4-yl)ethyl)-4,5a,6,7,8,8a-hexahydropyrrolo[3,4-b][1,2,3]triazolo[1,5-d][1,4]oxazine hydrochloride], in data set [1] (setting [3]), the solubility at 4 h is more than 10 µM. Also, the Ki in data set [2] came out at 71.4 nM.

Turning to `Cl.FC(F)(F)c1ccc(-c2nnn3c2CO[C@H]2CN(C4CCOCC4)C[C@@H]23)c(Cl)c1` [Example 55, (5aS,8aS)-3-(2-chloro-4-(trifluoromethyl)phenyl)-7-(tetrahydro-2H-pyran-4-yl)-4,5a,6,7,8,8a-hexahydropyrrolo[3,4-b][1,2,3]triazolo[1,5-d][1,4]oxazine hydrochloride], the solubility at 4 h in data set [1] (aqueous buffer) was more than 10 µM. For the same compound, the Ki in data set [2] was determined as 23.3 nM.

Regarding `Cl.Clc1ccc(-c2nnn3c2CO[C@H]2CN(C[C@@H]4CCOC4)C[C@@H]23)c(Cl)c1` [Example 56, (5aS,8aS)-3-(2,4-dichlorophenyl)-7-(((S)-tetrahydrofuran-3-yl)methyl)-4,5a,6,7,8,8a-hexahydropyrrolo[3,4-b][1,2,3]triazolo[1,5-d][1,4]oxazine hydrochloride], the solubility at 4 h in data set [1] (setting [3]) is more than 10 µM. The Ki in data set [2] was determined as 22.7 nM.

On to `Cl.Clc1ccc(-c2nnn3c2CO[C@@H]2CN(C[C@H]4CCOC4)C[C@H]23)c(Cl)c1` [Example 57, (5aR,8aR)-3-(2,4-dichlorophenyl)-7-(((R)-tetrahydrofuran-3-yl)methyl)-4,5a,6,7,8,8a-hexahydropyrrolo[3,4-b][1,2,3]triazolo[1,5-d][1,4]oxazine hydrochloride], for which the solubility at 4 h in data set [1] (setting [3]) was more than 10 µM. Besides, the Ki in data set [2] turned out to be 195 nM.

Regarding `Cl.Clc1ccc(-c2nnn3c2CO[C@H]2CN(C[C@H]4CCOC4)C[C@@H]23)c(Cl)c1` [Example 58, (5aS,8aS)-3-(2,4-dichlorophenyl)-7-(((R)-tetrahydrofuran-3-yl)methyl)-4,5a,6,7,8,8a-hexahydropyrrolo[3,4-b][1,2,3]triazolo[1,5-d][1,4]oxazine hydrochloride], the solubility at 4 h in data set [1] (setting [3]) is more than 10 µM. For the same compound, in data set [2], the Ki turned out to be 25.4 nM.

On to `Cl.Clc1ccc(-c2nnn3c2CO[C@@H]2CN(C[C@@H]4CCOC4)C[C@H]23)c(Cl)c1` [Example 59, (5aR,8aR)-3-(2,4-dichlorophenyl)-7-(((S)-tetrahydrofuran-3-yl)methyl)-4,5a,6,7,8,8a-hexahydropyrrolo[3,4-b][1,2,3]triazolo[1,5-d][1,4]oxazine hydrochloride], for which the solubility at 4 h in data set [1] (setting [3]) is more than 10 µM. Besides, in data set [2], the inhibitory constant (Ki) was determined as 181 nM.

On to `Cc1occc1CN1C[C@@H]2[C@@H](C1)OCc1c(-c3ccc(F)cc3F)nnn12.Cl` [Example 60, (5aR,8aR)-3-(2,4-difluorophenyl)-7-((2-methylfuran-3-yl)methyl)-4,5a,6,7,8,8a-hexahydropyrrolo[3,4-b][1,2,3]triazolo[1,5-d][1,4]oxazine hydrochloride], for which, in data set [1] (setting [3]), the solubility at 4 h was more than 10 µM. The Ki in data set [2] came out at 102 nM.

Take `Cc1occc1CN1C[C@@H]2OCc3c(-c4ccc(F)cc4F)nnn3[C@H]2C1.Cl` [Example 61, (5aS,8aS)-3-(2,4-difluorophenyl)-7-((2-methylfuran-3-yl)methyl)-4,5a,6,7,8,8a-hexahydropyrrolo[3,4-b][1,2,3]triazolo[1,5-d][1,4]oxazine hydrochloride]: in data set [1] (setting [3]), the solubility at 4 h is more than 10 µM. The Ki in data set [2] is 73.7 nM.
